Source: US6890706B2, “Process for removing stain in a photographic material” (Ciba Specialty Chemicals Corporation, priority 1999, dated 2005)

Test: Solubility in 0.2M K2CO3 solution (pH of a developer solution)
Type: physicochemical
Conditions: room temperature
For `O=C(O)CN(CC(=O)O)c1nc(Nc2ccc(/C=C/c3ccc(Nc4nc(Nc5cc(S(=O)(=O)O)ccc5S(=O)(=O)O)nc(N(CC(=O)O)CC(=O)O)n4)cc3S(=O)(=O)O)c(S(=O)(=O)O)c2)nc(Nc2cc(S(=O)(=O)O)ccc2S(=O)(=O)O)n1.[Na+].[Na+].[Na+].[Na+].[Na+].[Na+].[Na+].[Na+].[Na+].[Na+]` [G], the “Solubility of the active substance in K2CO3 0.2M solution” value (from here on “Solubility of the active substance”) was 32.0%. With `O=S(=O)([O-])c1ccc(Nc2nc(Nc3ccc(/C=C/c4ccc(Nc5nc(Nc6ccc(S(=O)(=O)[O-])cc6S(=O)(=O)[O-])nc(N6CCOCC6)n5)cc4S(=O)(=O)[O-])c(S(=O)(=O)[O-])c3)nc(N3CCOCC3)n2)c(S(=O)(=O)[O-])c1.[Na+].[Na+].[Na+].[Na+].[Na+].[Na+]` [Comp-3, reference compound] the “Solubility of the active substance” value was 6.6%. For `CN(CC(=O)[O-])c1nc(Nc2ccc(/C=C/c3ccc(Nc4nc(Nc5cc(S(=O)(=O)[O-])ccc5S(=O)(=O)[O-])nc(N(C)CC(=O)[O-])n4)cc3S(=O)(=O)[O-])c(S(=O)(=O)[O-])c2)nc(Nc2cc(S(=O)(=O)[O-])ccc2S(=O)(=O)[O-])n1.[Na+].[Na+].[Na+].[Na+].[Na+].[Na+].[Na+].[Na+]` [H], the “Solubility of the active substance” value was 32.0%. In the case of `COc1nc(NCCS(=O)(=O)[O-])nc(Nc2ccc(/C=C/c3ccc(Nc4nc(OC)nc(N(CCO)CCO)n4)cc3S(=O)(=O)[O-])c(S(=O)(=O)[O-])c2)n1.[Na+].[Na+].[Na+]` [Comp-1, reference compound], the “Solubility of the active substance” value is reported as 3.4%. With `O=C([O-])CC(Nc1nc(Nc2ccc(/C=C/c3ccc(Nc4nc(Nc5cc(S(=O)(=O)[O-])ccc5S(=O)(=O)[O-])nc(NC(CC(=O)[O-])C(=O)[O-])n4)cc3S(=O)(=O)[O-])c(S(=O)(=O)[O-])c2)nc(Nc2cc(S(=O)(=O)[O-])ccc2S(=O)(=O)[O-])n1)C(=O)[O-].[Na+].[Na+].[Na+].[Na+].[Na+].[Na+].[Na+].[Na+].[Na+].[Na+]` (stereo not shown) [C] the “Solubility of the active substance” value was 39.0%. For `O=C([O-])CN(CC(=O)[O-])c1nc(Nc2ccccc2)nc(Nc2ccc(/C=C/c3ccc(Nc4nc(Nc5ccccc5)nc(N(CC(=O)[O-])CC(=O)[O-])n4)cc3S(=O)(=O)[O-])c(S(=O)(=O)[O-])c2)n1.[Na+].[Na+].[Na+].[Na+].[Na+].[Na+]` [E], the “Solubility of the active substance” value was 38.5%. In the case of `O=C([O-])CC(Nc1nc(Nc2ccccc2)nc(Nc2ccc(/C=C/c3ccc(Nc4nc(Nc5ccccc5)nc(NC(CC(=O)[O-])C(=O)[O-])n4)cc3S(=O)(=O)[O-])c(S(=O)(=O)[O-])c2)n1)C(=O)[O-].[Na+].[Na+].[Na+].[Na+].[Na+].[Na+]` (stereo not shown) [B], the “Solubility of the active substance” value is reported as 25.6%.
